Assay results from patent publication US5066794A, “Process for preparing a disaccharide derivative” (Daiichi Pharmaceutical Co., Ltd., priority 1990, dated 1991).

Tests used:
[1] = system: Japanese domestic white rabbits; test: Test II: pyrogenicity test (body temperature increase in rabbits); conditions: 0.1 μg/kg intravenous; febrile = temperature increase of 0.6° C. or more
Method: The pyrogenicity of the compounds of this invention was determined in terms of body temperature increase in rabbits after intravenous injection of the test compound in accordance with the test method of pyrogenicity defined in Japanese Pharmacopoeia. That is, the rectal temperatures of Japanese domestic white rabbits (body weight: 2 to 2.5 kg) were measured 3 times at one-hour intervals. When the temperature in the second and third measurements were substantially equal, the third temperature was taken as a reference temperature. Within 15 minutes after the third measurement, the test compound dissolved in pyrogen-free distilled water was injected in the ear vein, and the rectal temperature was measured 3 times at one-hour intervals after injection. A difference between the reference temperature and the maximum temperature was taken as an increase of body temperature, and the pyrogenicity of the test compound was expressed by the number of febrile animals showing a temperature increase of 0.6° C. or more.

[2] = system: Japanese white rabbits; test: Test I: local Shwartzman reaction induction activity; assay type: in vivo; conditions: 100 μg S. minnesota LPS i.v. 20 hours later
Method: The local Shwartzman reaction test (Test I) is examined to determine the phenomenon of necrosis, at the site where a test compound was injected, induced by intravenous injection of lipopolysaccharide (hereinafter referred to as LPS) after 20 hours from intracutaneous injection of the test compound to test animals, preferably in rabbits.
The test on Shwartzman reaction specific to endotoxin was carried out as follows using Japanese white rabbits (female, weighing around 3 kg). That is, Japanese domestic white rabbits were intracutaneously injected with the test compound. Twenty hours later, 100 μg of LPS extracted from Salmonella minnesota R595, Re-mutant was intravenously injected to each rabbit. The Shwartzman reaction-induction activity was expressed in terms of number of animals that suffered from hemorrhagic necrosis at the site that had been prepared by intracutaneous injection of the test compound.

[3] = system: murine lymphocytes (splenocytes); test: Mitogenicity: stimulation of [^3 H]-labeled thymidine uptake into isolated murine lymphocytes (splenocytes); assay type: cell-based, BALB/c nu/nu mice; conditions: Mus musculus, Splenocyte, 48 hours, 37° C., read-out: Stimulation Index ± S.E. of mitogenicity ([^3 H]-labeled thymidine uptake; T/C)
Method: Spleen of BALB/c nu/nu mice (male; 8-week old) was minced, and lymphocytes collected from the minced spleen were incubated with graded doses of test compounds in RPMI 1640 medium without fetal bovine serum at 37° C. at a concentration of 1×10^5 to 1×10^6 lymphocytes per ml for 48 hours. Twenty-four hours before the completion of the incubation, [^3 H]-labeled thymidine (manufactured by New England Nuclear) was added to the culture. After the completion of the incubation, cells were collected on glass microfiber paper and dried, and the radioactivity of [^3 H]-labeled thymidine incorporated into the cells was measured. The ratio of thymidine uptake in the test culture to which the test compound had been added to that in the respective control culture was determined as a stimulation index. The higher the stimulation index, the higher the mitogenicity.

**Q.** What does the source list for CCCCCCCCCCCCCC(=O)O[C@H](CCCCCCCCCCC)CC(=O)O[C@@H]1[C@@H](NC(=O)C[C@@H](CCCCCCCCCCC)OC(=O)CCCCCCCCCCC)[C@H](OC[C@H]2O[C@H](OP(=O)(O)O)[C@H](NC(=O)C[C@H](O)CCCCCCCCCCC)[C@@H](OC(=O)C[C@H](O)CCCCCCCCCCC)[C@@H]2O)O[C@H](CO)[C@H]1OP(=O)(O)O [Compound of Present Invention, 6-O-{2-Deoxy-2-[(R)-3-dodecanoyloxytetradecanoylamino]-3-O-[(R)-3-tetradecanoyloxytetradecanoyl]-4-O-phosphono-β-D-glucopyranosyl}-2-deoxy-2-[(R)-3-hydroxytetradecanoylamino]-3-O-[(R)-3-hydroxytetradecanoyl]-1-O-phosphono-α-D-glucopyranose]?
**A.** Pyrogenicity: Number of Febrile Animals/Number of Tested Animals [1]: 3/4; Shwartzman reaction-induction activity: Number of Necrosed Animals/Number of Tested Animals ([2]; 20 μg/site intracutaneous): 2/3; fold induction at 0.01 µg/mL ([3]; 0.01 μg/ml): 4.06 ± 0.35; fold induction at 0.1 µg/mL ([3]; 0.1 μg/ml): 9.05 ± 0.7; fold induction at 1 µg/mL ([3]; 1 μg/ml): 11.8 ± 0.13

**Q.** What does the source list for CCCCCCCCCCC[C@@H](O)CC(=O)N[C@H]1[C@H](OC[C@H]2O[C@H](OP(=O)(O)O)[C@H](NC(=O)C[C@H](O)CCCCCCCCCCC)[C@@H](OC(=O)C[C@H](O)CCCCCCCCCCC)[C@@H]2O)O[C@H](CO)[C@@H](OP(=O)(O)O)[C@@H]1OC(=O)C[C@H](O)CCCCCCCCCCC [Control Compound 1, 6-O-{2-Deoxy-2-[(R)-3-hydroxytetradecanoylamino]-3-O-[(R)-3-hydroxytetradecanoyl]-4-O-phosphono-β -D-glucopyranosyl}-2-deoxy-2-[(R)-3-hydroxytetradecanoylamino]-3-O-[(R)-3-hydroxytetradecanoyl]-1-O-phosphono-α-D-glucopyranose, reference compound]?
**A.** Pyrogenicity: Number of Febrile Animals/Number of Tested Animals [1]: 0/3; Shwartzman reaction-induction activity: Number of Necrosed Animals/Number of Tested Animals ([2]; 80 μg/site intracutaneous): 0/3
